This is an account of results in ChEMBL document CHEMBL1136787, “Design, synthesis, and biological evaluation of monopyrrolinone-based HIV-1 protease inhibitors” (J Med Chem, 2003).

The subject of assay [1] is Human immunodeficiency virus 1. The assay is described as follows: Anti-viral activity was determined. Particulars: read-out: CIC95. Format: functional.
Assay [2] has as its target T1, Human immunodeficiency virus type 1 protease (Human immunodeficiency virus 1, UniProt Q72874). The assay is described as follows: Inhibitory activity against HIV-1 protease was determined.
A short description of assay [3]: Ratio (CIC95/IC50) of cellular antiviral activity over the isolated enzyme potency. Format: functional.
Assay [4] deals with T1, Human immunodeficiency virus type 1 protease. Description: Inhibitory activity against HIV-1 protease mutant was determined.

pIC50: −log10 of the molar value.

On to `CC(C)(C)OC(=O)N[C@@H](Cc1ccccc1)[C@@H](O)C[C@]1(Cc2ccccc2)N=CC(C2c3ccccc3C[C@H]2O)=C1O` (single isomer, unassigned; (-)), for which the IC95 in assay [1] was 800 nM.
Turning to `CC(C)C[C@@]1(C2=C(O)[C@](Cc3ccccc3)(C[C@H](O)[C@H](Cc3ccccc3)NC(=O)OC(C)(C)C)N=C2)N=CC([C@@H](Cc2ccccc2)C(N)=O)=C1O`, the IC95 in assay [1] came to 1500 nM. The negative-log IC50 (pIC50) in assay [2] is 8.00.
Take `CC(C)(C)NC(=O)[C@@H]1CN(Cc2cccnc2)CCN1C[C@@H](O)C[C@@H](Cc1ccccc1)C(=O)N[C@H]1c2ccccc2C[C@H]1O.O`: in assay [1], the IC95 was found to be 25 nM. Further, the C/I in assay [3] is 69.
In the case of `NC(=O)O[C@@H]1Cc2ccccc2C1C1=C(O)[C@](Cc2ccccc2)(C[C@H](O)[C@H](Cc2ccccc2)NC(=O)O[C@H]2CCOC2)N=C1` (single isomer, unassigned; (-)), the IC95 in assay [1] worked out at 250 nM. Moreover, the C/I in assay [3] is recorded as 125. The compound also showed a pIC50 in assay [4] of 6.44.
For the compound `CC(C)(C)OC(=O)N[C@@H](Cc1ccccc1)[C@@H](O)C[C@@H](Cc1ccccc1)C(=O)N[C@H]1c2ccccc2C[C@H]1O`, the IC95 in assay [1] stood at 400 nM. Further, the C/I in assay [3] is given as 1333.
The corresponding values for `O=C(N[C@@H](Cc1ccccc1)[C@@H](O)C[C@]1(Cc2ccccc2)N=CC(C2CNC(=O)c3ccccc32)=C1O)O[C@H]1CCOC1` (single isomer, unassigned; (+)) are 781 nM and 137.
Consider `O=C(N[C@@H](Cc1ccccc1)[C@@H](O)C[C@@H](Cc1ccccc1)C(=O)N[C@H]1c2ccccc2C[C@H]1O)OC1CCOC1` (stereo partly drawn), for which the IC95 in assay [1] was 3 nM. Further, the C/I in assay [3] is recorded as 100.
For the compound `CC(C)C[C@@]1(C2=C(O)[C@](Cc3ccccc3)(C[C@H](O)[C@H](Cc3ccccc3)NC(=O)OC3CCOC3)N=C2)N=CC([C@@H](Cc2ccccc2)C(N)=O)=C1O` (single isomer, unassigned; (-)), in assay [1], the IC95 came to 800 nM. Also, in assay [2], the pIC50 was 8.89.
On to `O=C(N[C@@H](Cc1ccccc1)[C@@H](O)C[C@]1(Cc2ccccc2)N=CC(C2c3ccccc3C[C@H]2O)=C1O)O[C@H]1CCOC1` (single isomer, unassigned; (-)), for which the IC95 in assay [1] came to 100 nM. In assay [4], this compound showed a pIC50 of 6.89.
